Values joined by “and” are separate entries in the source; they are usually repeats but may differ in a detail not shown here. Equal values may be shown once.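 Growth conditions: 96-well plates. Treatment: test compound, 48 hours, 5 concentrations. Analysis: linear interpolation between bracketing concentrations; unreached endpoints set to highest concentration. Here, GI50 denotes the concentration required for 50% inhibition of growth. At the TGI there is no net growth.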 Some results are limits rather than exact numbers.

The subject of this test is MDA-MB-468 breast. Briefly: DTP human tumour cell line panel, 48 h.
What is called GI50 is the concentration at which growth is held to half of that of the control. The TGI is the concentration giving total growth inhibition. A higher TGI goes with lower sensitivity of the cells. As for `COc1ccc(N(CC(=O)NCCC[Te]c2ccccc2)C(=O)CNC(=O)OC(C)(C)C)cc1`, the GI50 was 3.2 µM and the TGI is 10.9 µM.
As to `COc1cc2c(cc1OCCCCN1CCN(C(=S)SCCC(C#N)(c3ccccc3)c3ccccc3)CC1)N=C[C@@H]1CCCN1C2=O`, the GI50 is 0.499 µM and the concentration for total growth inhibition (TGI) stood at 31.4 µM.
`O=C(CCCCCCN1CC(=O)N2[C@@H](c3ccc(Cl)c(Cl)c3)c3[nH]c4ccccc4c3C[C@H]2C1=O)NO`: the GI50 is 1.89 µM and the TGI was 7.42 µM.
On to `Nc1nc(Nc2ccccc2SSc2ccccc2Nc2nc(N)nc(C(Cl)(Cl)Cl)n2)nc(C(Cl)(Cl)Cl)n1`, for which the GI50 is 4.7 µM and the TGI is 29.1 µM.
For `CN(CCNCc1ccccn1)CCNCc1ccccn1` the same measures were 2.71 µM and 7.93 µM.
Turning to `CC(=O)NCc1cccc(C#Cc2cncnc2Nc2ccc(OCc3cccc(F)c3)c(Cl)c2)c1`, the GI50 is 1.29 µM and the TGI came to 6.29 µM.
Turning to `CCCCCO/N=C\c1c2c(O)c3c(O)c(C)c4c(c3c1O)C(=O)C(C)(O/C=C\C(OC)C(C)C(OC(C)=O)C(C)C(O)C(C)C(O)C(C)/C=C\C=C(\C)C(=O)N2)O4` (stereo not drawn), the GI50 was 2.17 µM and the TGI came to 6.33 µM.
For `C[C@]12CC[C@@H]3c4cc(OC(F)F)c(OS(N)(=O)=O)cc4CC[C@H]3[C@@H]1CC[C@@H]2O` the same measures were 0.244 µM and 1.42 µM.
Take `CC1OC(OC2C(O)CC(OC3C(O)CC(OC4CCC5(C)C(CCC6C5CC(O)C5(C)C(C7=CC(=O)OC7)CCC65O)C4)OC3C)OC2C)CC(O)C1O` (stereo not drawn): the GI50 is 0.159 µM and the TGI came to 0.364 µM.
Regarding `COc1ccc(/C=C(\C#N)n2nnc3c(F)cccc32)cc1`, the GI50 was 1.58 µM and the concentration for total growth inhibition (TGI) was found to be 6.67 µM.
For `COC(=O)c1cncc(/C=C/c2c(C)cc(O)cc2C)c1` the same measures were 4.32 µM and 12.6 µM.
On to `C/C(=C\c1cnc(C)s1)[C@@H]1C[C@@H]2O[C@@H]2CCC[C@H](C)[C@H](O)[C@@H](C)C(=O)C(C)(C)[C@@H](O)CC(=O)O1`, for which the GI50 was less than 0.01 µM and the TGI was 1.81 µM.
In the case of `CCc1cccc(C)c1NC(=O)c1sc2nc3c(cc2c1N)C(=O)CCC3`, the 50% growth inhibitory concentration (GI50) was 0.377 µM and the TGI came to 60.5 µM.
On the same counts, the results for `O=[N+]([O-])c1ccc(N2CCOCC2)c2c1no[n+]2[O-]` are 0.769 µM and 2.83 µM.
As for `C#CCNC(=O)[C@H](CC)[C@H]1CC[C@H](C)[C@H]([C@@H](C)[C@H](O)[C@H](C)C(=O)[C@H](CC)C2O[C@]3(C=CC(=O)[C@]4(CC[C@@](C)([C@H]5CC[C@](O)(CC)[C@H](C)O5)O4)O3)[C@H](C)C[C@@H]2C)O1` (stereo partly drawn), the GI50 was 2.51 µM and the total growth inhibition concentration (TGI) was 21.5 µM.
On to `COc1cc(/C=C/C(=O)c2cccc(-n3cc(-c4ccc(Cl)cc4)[nH]c3=O)c2)cc(OC)c1OC`, for which the GI50 is 12.8 µM and the TGI is 34.7 µM.
For `Cn1cc(C2=C(c3cccc(OC[C@@H](O)CO)c3)C(=O)NC2=O)c2ccccc21`, the GI50 is greater than 25 µM and the TGI is greater than 25 µM.
On to `Cc1cc(C#Cc2ccc(C(C)(C)C)cc2)ccc1-n1c(/C=C/c2ccc(O)cc2O)nc2ccccc2c1=O`, for which the GI50 was 2.2 µM and the TGI amounted to 6.5 µM.
For `Cc1ccc(-c2nc([P+](c3ccccc3)(c3ccccc3)c3ccccc3)c(S(=O)(=O)c3ccc(C)cc3)o2)cc1` the same measures were 1.03 µM and 2.6 µM.
On the same counts, the results for `CSc1nc2sc3c(c2c(=O)n1-c1ccc(C(C)C)cc1)CCC(=O)C3` are 2.16 µM and 5.99 µM.
As to `Cc1cccc2c3c(sc12)C(c1ccc(Cl)cc1)C(C#N)=C(N)O3` (stereo not drawn), the 50% growth inhibitory concentration (GI50) was 0.277 µM and the TGI amounted to 3.75 µM.
In the case of `O=C1OC(C(O)CO)C(O)=C1O` (stereo not drawn), the GI50 is 1820 µM and 2020 µM; the concentration for total growth inhibition (TGI) was 3760 µM and 4400 µM.
In the case of `C=CCN1CC(=O)N2[C@@H](Cc3ccc(O)cc3F)C(=O)N(Cc3cccc(N4CC(N5CCN(CC)CC5)C4)n3)C[C@@H]2N1C(=O)NCc1ccccc1`, the GI50 was 0.232 µM and the TGI was greater than 100 µM.
For the compound `CCCCCCNC(=O)Oc1ccc(/C(=C(\C)c2ccc(Cl)cc2)c2ccc(OCCN3CCCCC3)cc2)cc1`, the GI50 was 3.46 µM and the TGI is 8.7 µM.
For the compound `Oc1cccc2ccc(N/N=C/c3cc(CN4CCOCC4)c(O)c4ncccc34)nc12`, the GI50 is 0.0302 µM and the total growth inhibition concentration (TGI) worked out at 0.289 µM.
For `CC(C)(O)CNc1nc(Nc2ccnc(C(F)(F)F)c2)nc(-c2cccc(C(F)(F)F)n2)n1` the same measures were 18 µM and 38.5 µM.
For `COc1cc2nc(-c3cc(F)ccc3O)nc(N[C@@H]3CNC[C@H]3C(C)(C)O)c2cc1OC` the same measures were 1.64 µM and 3.12 µM.
Turning to `N#CCCN1C/C(=C/c2ccc(Cl)cc2)C(=O)/C(=C/c2ccc(Cl)cc2)C1`, the GI50 was 1 µM and the TGI was 2.89 µM.
Take `O=C(/C=C/c1cccc(O)c1)c1cccc(-n2cc(-c3ccccc3)[nH]c2=O)c1`: the GI50 was 2.46 µM and the TGI worked out at 7.7 µM.
On the same counts, the results for `COC(=O)[C@H]1CCCN1C(=O)[C@H]1CCCN1C(=O)[C@@H](Cc1c[nH]c2ccccc12)NC(=S)Nc1cc(C(F)(F)F)cc(C(F)(F)F)c1` are 2.26 µM and 5.9 µM.
`c1ccc2c(c1)Nc1ccncc1S2`: the GI50 was 18.9 µM and the TGI worked out at 50.8 µM.
Turning to `c1ccc2cc(-c3n(Cc4ccc5ccccc5n4)c4ccccc4[n+]3Cc3ccc4ccccc4n3)ccc2c1`, the 50% growth inhibitory concentration (GI50) is 0.116 µM and the TGI was 0.529 µM.
As for `C(=N/N(Cc1ccccc1)Cc1ccccc1)/c1ccccc1`, the GI50 was greater than 100 µM and the TGI was greater than 100 µM.
On to `COC1=C(OC)C(=O)C(SC/C=C(\C)CCCC(C)CCCC(C)CCCC(C)C)=CC1=O` (stereo not drawn), for which the GI50 was 3.33 µM and the TGI was greater than 100 µM.
`CC1=C(CC(=O)c2cccc([N+](=O)[O-])c2)C(=O)c2ccccc2C1=O`: the GI50 was 1.77 µM and the TGI came out at 5.9 µM.
Regarding `O=C(Nc1cccc(-n2cc(-c3ccncc3)c(-c3cc(O)cc(Cl)c3)n2)c1)c1cc(C(F)(F)F)cc(C(F)(F)F)c1`, the GI50 was 3.1 µM and the total growth inhibition concentration (TGI) is greater than 100 µM.
For `COc1ccc(C(=O)c2c(N)c(C#N)cn2-c2cccc(OC)c2)cc1` the same measures were 1.12 µM and 4.23 µM.
Take `Oc1c(I)cc(I)c2cccnc12`: the GI50 was 7.01 µM and the TGI was determined as 30.3 µM.
For `O=C(CC1(O)C(=O)N(Cc2ccccc2)c2ccccc21)c1ccc(C(=O)NCC2CCC3(CC2)OOC2(CCCCC2)OO3)cc1` (stereo not drawn) the same measures were 1.49 µM and 3.31 µM.
As to `CCN(CC)CCCCCCNc1cc(OC)cc2cccnc12`, the GI50 is 1.93 µM and the TGI was 3.8 µM.
For `NS(=O)(=O)c1ccc(-c2cc3ccncc3cc2OCc2ccccc2)cc1` the same measures were 13.4 µM and greater than 25 µM.
For `N#CC1=C(/N=C/c2ccccc2)Oc2c(ccc3ccccc23)C1c1ccccc1` (stereo not drawn) the same measures were 0.247 µM and 0.741 µM.
On to `Oc1ccc(C(c2ccc(O)cc2)c2ccc(Br)cn2)cc1`, for which the GI50 is 0.234 µM and the TGI was 0.637 µM.
Consider `Cc1cc(N(CCCNc2ccnc3cc(Cl)ccc23)Cc2ccco2)nc(N2CCN(C)CC2)n1`, for which the GI50 was 1.81 µM and the TGI is 4.32 µM.

These data come from PubChem BioAssay (NCI).
